Article PMC8794222 (Photochemistry and photobiology, 2020)
Blank lines part the entries; values can stand above or below the compound they belong to. Ends that are not written are not given here.

Key:
[1] = target: T1, extracellular domain of EGFR protein (Homo sapiens, UniProt P00533); settings: cited from earlier work
[2] = target: T1, extracellular domain of EGFR protein; assay: SPR analysis on immobilized EGFR extracellular domain; type: binding; settings: analyte up to 250 μM, HBS-EP+ with 4% DMSO

Compound: 2: EGFR-L1 sequence modified with a glycine spacer, amide terminus (GLARLLT-NH2) [compound 2]
Association and dissociation with EGFR ECD by SPR (in words) ([1]; earlier studies): fast association and dissociation

Kind of binding to EGFR ECD in SPR sensorgram (in words) [2]: non-specific binding
Compound: CC1=CC(C)=[N+]2C1=C(CCCC(=O)O)c1c(C)cc(C)n1[B-]2(F)F [BODIPY 1]

Compound: cyclo(K(N3)larllt) [reference compound]
Binding to EGFR (in words) ([1]; previously shown): high affinity
